Series [1] relates to human liver cancer Bel7404. The series can be described thus: Compound 3 combined with lenvatinib, human liver cancer Bel7404 xenograft in nude mice. In kind it is in vivo. Conditions: po: lenvatinib 10 mg/kg, compound 3 400 mg/kg, combination 10 + 400. The text has this:
Experimental method: The model of human liver cancer Bel7404 transplant tumor in nude mice was established by subcutaneously inoculating human liver cancer Bel7404 cell lines into the armpits of nude mice. Cells were inoculated in an amount of 1×10^6, and after formation of the transplanted tumors by inoculation, the cells were passed 3 generations in nude mice before use. The vigorous growth of tumor tissue was cut into approximate 1.5 mm^3, and homogenized under sterile conditions, to prepare 1×10^7/mL of cell suspension. 0.1 mL of cell suspension was subcutaneously inoculated into the right armpit of nude mice. For transplanted tumors in nude mice, the diameter of the transplanted tumor was measured with vernier caliper. After the tumor grew to 100 mm^3, the animals were randomly divided into groups, with 6 animals in each group. Using the method of measuring tumor diameter, the anti-tumor effect of test compound was dynamically observed. Compound 3 was orally administered at 400 mg/kg, once a day, for three weeks; lenvartinib was also orally administered at 10 mg/kg, once a day, for two weeks. The measurement frequency of tumor diameter was once every three days. The animals in the negative control group were orally given an equal amount of physiological saline. The effect of combined medicaments was evaluated based on the Q value calculated by the Jin's formula: […]
Ea+b represents the tumor inhibitory rate of the combined medicaments, while Ea and Eb represent the tumor inhibitory rates of medicament A and medicament B, respectively. For example, the Q value of 0.85-1.15 means additive action (+), and the Q value of >1.15 means synergistic action (++).
In general terms: Xenograft models place foreign cells or tissue in a host animal.

The test system of series [2] is human lung cancer 95D and human liver cancer Bel7404. Description: Tumor necrosis in vivo, HE staining. On the set-up: species or system nude mice. To be noted: 400 mg/kg. Here is the method: Well growing solid tumors (human lung cancer […]) and human liver cancer Bel7404) were cut into uniform small pieces of approximate 2-3 mm under sterile conditions, and subcutaneously inoculated into the right armpit of each nude mouse using a cannula. 14 days after inoculation, each mouse was treated with compound 6 by oral administration at a dosage of 400 mg/kg (in a dosage by volume of 0.5 mL/20 g body weight), and compound 6 was prepared as a suitable solution with sterile normal saline. At different time points (4 h, 24 h) after administration, the nude mice were killed, and the tumor tissue was dissected and fixed with 10% formalin. The pathological sections were made, followed by HE staining and taking photos, to observe the internal necrosis and cell proliferation within the tumors.

The test system is the same in series [3]. The series can be described thus: In vivo vascular necrosis of tumors, PCNA immunohistochemistry. On the set-up: species or system nude mice. To be noted: 400 mg/kg.
The test system of series [4] is human liver cancer QGY7703. The series can be described thus: Compound 6 combined with T cells, human liver cancer QGY7703 model in NOG mice. In kind it is in vivo. Conditions: 8 × 10^6 T cells sc, compound 6 200 mg/kg ip, or both. Here is the method:
Experimental method: QGY7703 tumor cells were washed twice with PBS, and then resuspended with PBS:Matrix (1:1 mixture by volume). The cell concentration was adjusted to 2.5×10^6/mL, and subcutaneously inoculated to the right armpit of experimental animals at 200 μL/mouse, i.e. 5×10^5 cells/mouse. When the tumor grew to about 50 mm^3, the mice were divided into groups for administration.
T cell culture and harvest: PBMCs of donors were activated and expanded in vitro according to the standard operating procedures for T cell culture. The cells in logarithmic growth phase were harvested and suspended in the medium at a moderate dose (2×10^7/mL) for future use.
T cells were administrated by subcutaneous injection, and the injection site was the same as the inoculation site of tumor cells.
The general conditions, body weight, tumor volume, and tumor weight of mice were recorded every 3 days. Based on the status of the tumor, whether EAL was further injected was decided.
(§1) The effect of combined medicaments was evaluated based on the Q value calculated by Jin's formula: […]
(§2) Ea+b represents the tumor inhibitory rate of the combined medicaments, while Ea and Eb represent the tumor inhibitory rates of medicament A and medicament B, respectively.

Series [5] concerns human gastric cancer SGC7901. The series can be described thus: Compound 6 combined with paclitaxel, human gastric cancer SGC7901 xenograft in nude mice. Format: in vivo. To be noted: paclitaxel 10 mg/kg iv, compound 6 200 mg/kg ip, combination 10 + 200.
From the text: Experimental method: The model of human gastric cancer SGC7901 transplant tumor in nude mice was established by subcutaneously inoculating human gastric cancer SGC7901 cell lines into the armpits of nude mice. Cells were inoculated in an amount of 1×10^6, and after formation of the transplanted tumors by inoculation, the cells were passed 3 generations in nude mice before use. The vigorous growth of tumor tissue was cut into approximate 1.5 mm^3, and homogenized under sterile conditions, to prepare 1×10^7/mL of cell suspension. 0.1 mL of cell suspension was subcutaneously inoculated into the right armpit of nude mice. For transplanted tumors in nude mice, the diameter was measured with vernier caliper. After the tumor grew to 100 mm^3, the animals were randomly divided into groups, with 6 mice in each group. […] The measurement frequency of tumor diameter was once every three days. The dosage by volume was 0.1 mL/20 g. The mice in the negative control group were given an equal amount of physiological saline by intravenous injection. The effect of combined medicaments was evaluated based on the Q value calculated by Jin's formula: […]
as §2

For series [6], the system named is Lewis non-small cell lung cancer. Description: Compound 11 combined with PD-L1, Lewis non-small cell lung cancer model in mice. In kind it is in vivo, C57BL/6 mice. Conditions: ip: PD-L1 10 mg/kg, compound 11 200 mg/kg, combination 10 + 200.
From the text: Experimental method: The model of transplant tumor in C57BL/6 mice was established by subcutaneously inoculating Lewis non-small cell lung cancer cell lines into the armpits of C57BL/6 mice. Cells were inoculated in an amount of 1×10^6, and after formation of the transplanted tumors by inoculation, the cells were passed 3 generations in C57BL/6 mice before use. The vigorous growth of tumor tissue was cut into approximate 1.5 mm^3, and homogenized under sterile conditions, to prepare 1×10^7/mL of cell suspension. 0.1 mL of cell suspension was subcutaneously inoculated into the right armpit of C57BL/6 mice. For transplanted tumors in C57BL/6 mice, the diameter was measured with vernier caliper. After the tumor grew to 100 mm^3, the animals were randomly divided into groups, with 6 mice in each group. […] The measurement frequency of tumor diameter was once every three days. The dosage by volume was 0.1 mL/20 g. The mice in the negative control group were given an equal amount of physiological saline by intravenous injection.
as §1, §2

These results are taken from patent US20240130988A1, “Use of stilbene compounds in the preparation of anti-tumor drugs” (Guangzhou AnHao Pharmaceutical Technology CO., LTD., priority 2022, published 2024).

On to `COc1cc(/C=C(/C(=O)O)c2cc(OC)c(OC)c(OC)c2)cc(OC)c1` [Compound 3, (E)-3-(3,5-dimethoxyphenyl)-2-(3,4,5-trimethoxyphenyl)acrylic acid], for which, in series [1], the “RTV (d 21)” value is 3.54 ± 1.87, the “Terminal weight” value amounted to 22.4 ± 0.6 g and the “Tumor inhibitory rate %” value was 68.47%.

`COc1ccc(/C=C(/C(=O)O)c2cc(OC)c(OC)c(OC)c2)cc1O` [Compound 6, (E)-3-(3-hydroxy-4-methoxyphenyl)-2-(3,4,5-trimethoxyphenyl)acrylic acid]: the “Internal necrosis within the tumors (HE staining)” value in series [2] (4 h after oral administration) was “necrosis began to appear within the tumor tissues”. In addition, the “Internal necrosis within the tumors (HE staining)” value in series [2] (24 h after oral administration) is on record as “massive necrosis”. In addition, the “Damage to the blood vessels of tumors (PCNA immunohistochemistry)” value in series [3] (4 h after oral administration) is given as “only some vascular endothelial cells proliferated in the tumor tissues”. Besides, the “Damage to the blood vessels of tumors (PCNA immunohistochemistry)” value in series [3] (24 h after oral administration) was “massive blood flow blockade and necrosis of tumor tissues”. In series [4], the “RTV(d 32)” value is recorded as 19.62 ± 3.17, the “Terminal weight” value is 24.5 ± 0.9 g and the “Tumor inhibitory rate %” value stood at 39.61%. Moreover, in series [5], the “RTV (d 21)” value amounted to 6.21 ± 1.88, the “Terminal weight” value was 22.9 ± 1.2 g and the “Tumor inhibitory rate %” value is on record as 54.07%.

Consider `COc1cc(/C(=C\c2cc(O)c(OC)c(O)c2)C(=O)O)cc(OC)c1OC` [Compound 11, (E)-3-(3,5-dihydroxy-4-methoxyphenyl)-2-(3,4,5-trimethoxyphenyl)acrylic acid], for which, in series [6], the “RTV (d 18)” value amounted to 7.62 ± 2.28, the “Terminal weight” value is 23.1 ± 0.9 g and the “Tumor inhibitory rate %” value was 48.76%.
